Data from patent US10709688B2, “Agent for treating synucleinopathy” (TOHOKU UNIVERSITY, priority 2016, dated 2020).

How the values were obtained:
FABP3 = FABP3 (Homo sapiens (Human), UniProt P05413); test: Evaluation of FABP3 ligand activity, fluorescent displacement assay using 1,8-ANS; type: binding; conditions: 1,8-ANS displacement; average of two measurements
Experimental: Adopted for evaluation in the evaluation of FABP3 ligand activity was a fluorescent displacement assay using 1,8-ANS (1-anilino-8-naphthalenesulfonic acid). Fluorescent materials such as 1,8-ANS are characterized by an increase in the fluorescent intensity under a hydrophobic environment. […] Ethanol was used as the dilution solvent of the compounds.
To each well was added as a detection reagent, a 1,8-ANS (ALDRICH) solution (10 μM, ethanol/sodium phosphate buffer solution=1:4 v/v, 25 μL), and ethanol solutions of compounds diluted to different concentrations were added in an amount of 10 μL each (the final ethanol concentration was 15%). The plate was shaken for 10 sec. in the plate reader and incubated for 10 min. at room temperature. […] Used for measurement was ARVO™ X One by PerkinElmer Japan.
(§1) Measurement was performed twice each, and the average was adopted as the result. The software, Origin, available from Light Stone was used for calculating IC50.

FABP4 = FABP4 (Homo sapiens (Human), UniProt P15090); test: Evaluation of FABP4 ligand activity, fluorescent displacement assay using 1,8-ANS (Cayman assay kit); type: binding; conditions: 1,8-ANS displacement; average of two measurements
Experimental: An evaluation of FABP4 was performed using a fluorescent displacement assay using 1,8-ANS, similar to FABP3. Used in the evaluation of FABP4 was an assay kit (FABP4 Inhibitor/Ligand Screening Assay Kit) available from Cayman Chemical Company. Ethanol was used as a solvent for dissolving the compound, and an arachidonic acid which comes with the kit was used as a positive control. The measurement procedure was performed similarly to the aforementioned FABP3 assay.
as §1

GST-FABP3 = GST-FABP3 (Mus musculus (Mouse), UniProt P11404); test: Test Example 13: affinity of FABP ligand using ANS, GST-FABP3; type: binding; conditions: ANS fluorescence; average of three measurements±SE; read-out: Kd value of FABP against the ligands, GST-FABP3
Experimental: Pt: FABP protein concentration (=400 nM);

[1] = system: MPTP Parkinson's disease model mice; test: Test Example 8: motor function in MPTP Parkinson's disease model animal; type: in vivo, mouse; conditions: 1.0 mg/kg p.o. daily 2 weeks, three weeks after MPTP, FIG. 8
Experimental: From 24 hours after the final administration of MPTP, the solvent or FABP3 ligand (compound of Example 3) (1.0 mg/kg, p.o., each group n=7) was administered once every day for 2 weeks. Three weeks after administration of MPTP, at which time motor dysfunction was observed, the motor function was evaluated by a rotarod test and beam walking test. […] It was confirmed in both tests that the ligand administered group was fully recovered from the motor dysfunction that developed after MPTP administration.

[2] = system: MPTP Parkinson's disease model C57BL6 N mice; test: Test Example 10: cognitive function in MPTP Parkinson's disease model mice; type: in vivo, mouse; conditions: p.o. once every day (Example 1: 0.1, 0.5 or 1.0 mg/kg; others 1.0 mg/kg), four weeks after MPTP, FIG. 10
Experimental: MPTP (25 mg/kg, i.p.) was administered once every day for 5 consecutive days to a 10 week old male C57BL6 N mice to prepare a Parkinson's disease model mice. […] Four weeks after administration of MPTP, at which time cognitive dysfunction was observed, the cognitive function was evaluated by a novel object recognition test and a passive avoidance test. The passive avoidance test was performed by putting a mouse in a light room and applying electric shock (0.3 mA, 2 second) on the mouse when it entered the dark room in the train run. Twenty four hours later, the mouse was put in the light room again, and the time until the mouse entered the dark room was measured.

[3] = system: MPTP Parkinson's disease model C57BL6 N mice; test: Test Example 7: cognitive function in MPTP Parkinson's disease model animal; type: in vivo, mouse; conditions: 1.0 mg/kg p.o. daily 2 weeks, four weeks after MPTP, FIG. 7
Experimental: 1-Methyl-4-phenyl-1,2,3,6-tetrahydropyridine (MPTP, 25 mg/kg, i.p., purchased from Sigma-Aldrich (St Louis, Mo.)), which is a dopamine neurotoxin, was administered once every day for 5 consecutive days to a 10 week old male C57BL6 N mice, to prepare a Parkinson's disease model animal. From 24 hours after the final administration of MPTP, the solvent or FABP3 ligand (compound of Example 3, 1.0 mg/kg, p.o., each group n=7) was administered once every day for 2 weeks. Four weeks after administration of MPTP, at which time cognitive dysfunction was observed, the cognitive function was evaluated by a novel object recognition test.

[4] = system: TH and α-synuclein double positive cells of substantia nigra, MPTP model mice; test: Test Example 12: suppression of α-synuclein aggregation in MPTP Parkinson's disease model mice; type: in vivo, mouse; conditions: p.o. once every day (Example 1: 0.1, 0.3 or 1.0 mg/kg; others 1.0 mg/kg), four weeks after MPTP, FIG. 12
Experimental: MPTP (25 mg/kg, i.p.) was administered once every day for 5 consecutive days to a 10 week old male C57BL6 N mice to prepare a Parkinson's disease model mice. […] Four weeks after MPTP administration, at which time a loss in the dopamine neuron and formation of α-synuclein multimers are observed, a mouse was fixed under perfusion to prepare a brain slice 50 μm thick that includes a substantia nigra region. The brain slice was reacted with an anti-TH antibody (mouse monoclonal antibody 22941 produced by Immunostar, 1:1000) and an anti-α-synuclein antibody (rabbit polyclonal antibody SC-7011-R produced by Santa Cruz, 1:200) and detected by a fluorescence-labeled, secondary antibody (Alexa 488 anti-rabbit IgG (produced by Jackson ImmunoResearch, 1:500)) to evaluate the number of positive cells.

[5] = system: dopamine neurons (TH positive cells) of substantia nigra, MPTP model mice; test: Test Example 11: dopamine neuroprotection in MPTP Parkinson's disease model mice; type: in vivo, mouse; conditions: p.o. once every day (Example 1: 0.1, 0.3 or 1.0 mg/kg; others 1.0 mg/kg), four weeks after MPTP, FIG. 11
Experimental: MPTP (25 mg/kg, i.p.) was administered once every day for 5 consecutive days to a 10 week old male C57BL6 N mice to prepare a Parkinson's disease model mice. […] Four weeks after MPTP administration, at which time a loss in the dopamine neuron and formation of α-synuclein multimers are observed, the mouse was fixed under perfusion to prepare a brain slice 50 μm thick that includes a substantia nigra region.

[6] = system: MPTP Parkinson's disease model C57BL6 N mice; test: Test Example 9: motor function in MPTP Parkinson's disease model mice; type: in vivo, mouse; conditions: p.o. once every day (Example 1: 0.1, 0.5 or 1.0 mg/kg; others 1.0 mg/kg), three weeks after MPTP, FIG. 9
Experimental: MPTP (25 mg/kg, i.p.) was administered once every day for 5 consecutive days to a 10 week old male C57BL6 N mice to prepare a Parkinson's disease model mice. […] Three weeks after administration of MPTP, at which time motor dysfunction was observed, the motor function was evaluated by a rotarod test and beam walking test.

GST-FABP4 = GST-FABP4 (Mus musculus (Mouse), UniProt P04117); test: Test Example 13: affinity of FABP ligand using ANS, GST-FABP4; conditions: read-out: Kd value of FABP against the ligands, GST-FABP4; ANS fluorescence; average of three measurements±SE
GST-FABP4, sequence (P04117 whole entry): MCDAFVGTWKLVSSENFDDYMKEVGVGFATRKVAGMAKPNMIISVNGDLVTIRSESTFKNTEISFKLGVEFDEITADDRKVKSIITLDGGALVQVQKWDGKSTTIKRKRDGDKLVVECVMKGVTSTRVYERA
Experimental: After GST-FABP3 and GST-FABP4 were respectively expressed in the Escherichia coli [BL21 (DE3) strain], affinity purification was performed using a glutathione column.
Purification of the GST binding protein was performed using a GST purification kit (Takara Bio USA). After the Escherichia coli was recovered by centrifuging, the accessory extraction buffer and aluminum oxide powder were added and the mixture was ground in the mortar. The centrifuged supernatant was added to the accessory glutathione column and left stationary on ice for 30 min. Then, the supernatant in the column was thrown away, and the remaining matter was washed with the extraction buffer, and subsequently subjected to elution using an elution buffer including glutathione. The protein concentration of the elution product was calculated from the absorbance at 280 nm, and used as an ANS assay.
The fluorescence intensity at the respective ligand concentrations was converted to a relative value (%) against the ANS fluorescence intensity under the absence of ligand, then the dissociation constant Kd(nM) was calculated by a nonrecurring analysis using the following equation.
F: Relative fluorescence intensity at a certain condition (%);
Ka: Reciprocal of dissociation constant Kd (nM^−1);
Fmax*: Relative fluorescence intensity when FABP is fully occupied by ligands.

FABP4, sequence (P15090 whole entry): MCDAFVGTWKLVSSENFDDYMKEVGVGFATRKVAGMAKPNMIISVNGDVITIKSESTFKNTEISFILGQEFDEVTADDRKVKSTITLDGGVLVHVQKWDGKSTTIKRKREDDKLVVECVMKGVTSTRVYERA
GST-FABP3, sequence (P11404 whole entry): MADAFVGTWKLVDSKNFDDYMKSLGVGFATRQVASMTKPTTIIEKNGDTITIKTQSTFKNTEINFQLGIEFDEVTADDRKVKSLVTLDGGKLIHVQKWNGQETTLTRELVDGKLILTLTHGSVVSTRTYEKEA
FABP3, sequence (P05413 whole entry, species assumed): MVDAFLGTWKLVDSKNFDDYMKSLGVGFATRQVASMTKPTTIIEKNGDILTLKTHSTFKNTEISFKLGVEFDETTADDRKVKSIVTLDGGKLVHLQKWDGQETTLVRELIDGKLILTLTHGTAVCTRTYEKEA

**Q.** What does the source list for `O=C(O)CCCOc1ccccc1-c1cc(-c2ccccc2)n(-c2ccc(Cl)c(Cl)c2)n1` [Example 3, 4-(2-(1-(3,4-Dichlorophenyl)-5-phenyl-1H-pyrazol-3-yl)phenoxy)butanoic acid]?
**A.** IC50 (FABP3): 280 nM; IC50 (FABP4): 1660 nM; Kd (GST-FABP3): 2220 ± 104 nM; beam walking test, number of footslips [1]: entirely recovered; rotarod test, Latency [1]: recovered fully; cognitive function by novel object recognition test and passive avoidance test [2]: significant effects; novel object recognition test, cognitive dysfunction [3]: such dysfunction was not observed; number of TH and α-synuclein double positive cells [4]: tendency towards improvement; number of TH positive cells (dopamine neurons) [5]: improved significantly; beam walking test, number of footslips [6]: improved significantly; rotarod test, Latency [6]: improved significantly; Kd (GST-FABP4): 6670 ± 1400 nM
